Measurements published in article PMC5218480 (PLoS ONE, 2017).

System: MV-4-11 cells
Assay: Gene expression microarray analysis (Affymetrix PrimeView) and GSEA
Assay type: cell-based, human
Set-up: RFU PODN (11730768_x_at) / Fold change /veh PODN (11730768_x_at) / RFU LINC00158 (11744669_a_at) / Fold change /veh LINC00158 (11744669_a_at) / RFU DUSP10 (11751237_a_at) / Fold change /veh DUSP10 (11751237_a_at) / RFU ID3 (11757404_x_at) / Fold change /veh ID3 (11757404_x_at) / RFU PLEKHG5 (11737974_s_at) / Fold change /veh PLEKHG5 (11737974_s_at) / RFU LRRC4B (11730491_at) / Fold change /veh LRRC4B (11730491_at) / RFU GIMAP4 (11747438_a_at) / Fold change /veh GIMAP4 (11747438_a_at) / RFU KRT8 (11758183_x_at) / Fold change /veh KRT8 (11758183_x_at) / RFU CNN1 (11734310_a_at) / Fold change /veh CNN1 (11734310_a_at) / RFU VPS37D (11726825_at) / Fold change /veh VPS37D (11726825_at) / RFU C10orf10 (11716522_x_at) / Fold change /veh C10orf10 (11716522_x_at) / RFU KIR2DL2 /// KIR2DL4 /// KIR2DL5A /// KIR2DL5B /// KIR2DS1 /// KIR2DS2 /// KIR2DS3 /// KIR2DS4 /// KIR3DL3 /// KIR3DL3 /// KIR3DS1 (11738374_at) / Fold change /veh KIR2DL2 /// KIR2DL4 /// KIR2DL5A /// KIR2DL5B /// KIR2DS1 /// KIR2DS2 /// KIR2DS3 /// KIR2DS4 /// KIR3DL3 /// KIR3DL3 /// KIR3DS1 (11738374_at) / RFU C1QL1 (11718748_at) / Fold change /veh C1QL1 (11718748_at) / RFU TMPRSS4 (11747572_a_at) / Fold change /veh TMPRSS4 (11747572_a_at) / RFU HAMP (11756126_x_at) / Fold change /veh HAMP (11756126_x_at) / RFU RNFT2 (11725882_a_at) / Fold change /veh RNFT2 (11725882_a_at) / RFU NR4A2 (11747474_a_at) / Fold change /veh NR4A2 (11747474_a_at) / RFU ABCC12 (11746883_a_at) / Fold change /veh ABCC12 (11746883_a_at) / RFU TMEM136 (11760407_x_at) / Fold change /veh TMEM136 (11760407_x_at) / RFU CLDN22 /// WWC2 (11732394_at) / Fold change /veh CLDN22 /// WWC2 (11732394_at) / RFU HLA-DPB1 (11760878_x_at) / Fold change /veh HLA-DPB1 (11760878_x_at) / RFU SPINT1 (11716480_a_at) / Fold change /veh SPINT1 (11716480_a_at) / RFU GAP43 (11754022_s_at) / Fold change /veh GAP43 (11754022_s_at) / RFU A4GNT (11735810_at) / Fold change /veh A4GNT (11735810_at) / RFU PRB3 (11715151_x_at) / Fold change /veh PRB3 (11715151_x_at) / RFU TUBB4B (11761932_at) / Fold change /veh TUBB4B (11761932_at) / RFU CAPN14 (11732068_a_at) / Fold change /veh CAPN14 (11732068_a_at) / RFU TMCC2 (11721928_a_at) / Fold change /veh TMCC2 (11721928_a_at) / RFU IRGQ (11745062_a_at) / Fold change /veh IRGQ (11745062_a_at) / RFU FAM174B (11720279_a_at) / Fold change /veh FAM174B (11720279_a_at) / RFU TMPRSS4 (11748680_a_at) / Fold change /veh TMPRSS4 (11748680_a_at) / RFU FAM212B (11763350_a_at) / Fold change /veh FAM212B (11763350_a_at) / RFU PLEKHG5 (11743358_a_at) / Fold change /veh PLEKHG5 (11743358_a_at) / RFU ZSCAN30 (11745921_a_at) / Fold change /veh ZSCAN30 (11745921_a_at) / RFU CMKLR1 (11741424_a_at) / Fold change /veh CMKLR1 (11741424_a_at) / RFU LOC101060620 /// MAPK8IP1 (11723275_at) / Fold change /veh LOC101060620 /// MAPK8IP1 (11723275_at) / RFU SPTSSB (11747773_x_at) / Fold change /veh SPTSSB (11747773_x_at) / RFU PRSS12 (11739890_at) / Fold change /veh PRSS12 (11739890_at) / RFU BIN1 (11741810_x_at) / Fold change /veh BIN1 (11741810_x_at) / RFU WNT11 (11732464_a_at) / Fold change /veh WNT11 (11732464_a_at) / RFU C10orf10 (11716521_a_at) / Fold change /veh C10orf10 (11716521_a_at) / RFU C5orf56 (11738089_at) / Fold change /veh C5orf56 (11738089_at) / RFU CYB561 (11721691_x_at) / Fold change /veh CYB561 (11721691_x_at) / RFU ANKRD19P (11752326_a_at) / Fold change /veh ANKRD19P (11752326_a_at) / RFU OR2T12 /// OR2T33 /// OR2T8 (11738714_s_at) / Fold change /veh OR2T12 /// OR2T33 /// OR2T8 (11738714_s_at) / RFU VCAN (11748164_a_at) / Fold change /veh VCAN (11748164_a_at) / RFU JSRP1 (11732532_at) / Fold change /veh JSRP1 (11732532_at) / RFU KRTAP10-11 (11738290_x_at) / Fold change /veh KRTAP10-11 (11738290_x_at) / RFU MYO3A (11730013_a_at) / Fold change /veh MYO3A (11730013_a_at) / RFU EBF3 (11725865_a_at) / Fold change /veh EBF3 (11725865_a_at) / RFU CAMK2N1 (11719241_x_at) / Fold change /veh CAMK2N1 (11719241_x_at) / RFU C5orf56 (11738088_a_at) / Fold change /veh C5orf56 (11738088_a_at) / RFU OLFML3 (11715873_a_at) / Fold change /veh OLFML3 (11715873_a_at) / RFU LOC100653217 /// NTM (11731650_a_at) / Fold change /veh LOC100653217 /// NTM (11731650_a_at) / RFU MAPK11 (11762145_a_at) / Fold change /veh MAPK11 (11762145_a_at) / RFU FIZ1 (11724087_x_at) / Fold change /veh FIZ1 (11724087_x_at) / RFU OASL (11726364_x_at) / Fold change /veh OASL (11726364_x_at) / RFU SOX15 (11748057_x_at) / Fold change /veh SOX15 (11748057_x_at) / RFU CD79A (11719716_a_at) / Fold change /veh CD79A (11719716_a_at) / RFU HIST1H1D (11736915_at) / Fold change /veh HIST1H1D (11736915_at) / RFU CASKIN2 (11723855_a_at) / Fold change /veh CASKIN2 (11723855_a_at) / RFU LOC730098 (11760151_x_at) / Fold change /veh LOC730098 (11760151_x_at) / RFU OR4N2 (11742367_at) / Fold change /veh OR4N2 (11742367_at) / RFU PRRT2 (11749266_a_at) / Fold change /veh PRRT2 (11749266_a_at) / RFU SNX32 (11753110_a_at) / Fold change /veh SNX32 (11753110_a_at) / RFU CDHR5 (11726645_a_at) / Fold change /veh CDHR5 (11726645_a_at) / RFU RCAN1 (11760418_a_at) / Fold change /veh RCAN1 (11760418_a_at) / RFU FAM167A (11723789_a_at) / Fold change /veh FAM167A (11723789_a_at) / RFU FAM26E (11764081_at) / Fold change /veh FAM26E (11764081_at) / RFU ISYNA1 (11749810_s_at) / Fold change /veh ISYNA1 (11749810_s_at) / RFU ACY1 (11761880_at) / Fold change /veh ACY1 (11761880_at) / RFU 11764098_at / Fold change /veh 11764098_at / RFU SAMD14 (11745864_x_at) / Fold change /veh SAMD14 (11745864_x_at) / RFU NPB (11741838_a_at) / Fold change /veh NPB (11741838_a_at) / RFU TMPRSS6 (11731388_a_at) / Fold change /veh TMPRSS6 (11731388_a_at) / RFU KRTAP10-2 (11738614_at) / Fold change /veh KRTAP10-2 (11738614_at) / RFU ARHGAP8 /// PRR5-ARHGAP8 (11727945_x_at) / Fold change /veh ARHGAP8 /// PRR5-ARHGAP8 (11727945_x_at) / RFU KRTAP5-7 /// NADSYN1 (11734609_at) / Fold change /veh KRTAP5-7 /// NADSYN1 (11734609_at) / RFU RASL12 (11751679_a_at) / Fold change /veh RASL12 (11751679_a_at) / RFU CDKN2B (11736163_a_at) / Fold change /veh CDKN2B (11736163_a_at) / RFU PRF1 (11729649_at) / Fold change /veh PRF1 (11729649_at) / RFU, ZNF638 /// ZNF638-IT1 / Fold change vs veh, ZNF638 /// ZNF638-IT1 / RFU, PANK3 / Fold change vs veh, PANK3 / RFU, SH3YL1 / Fold change vs veh, SH3YL1 / RFU, ZEB2 / Fold change vs veh, ZEB2 / RFU, NRIP1 / Fold change vs veh, NRIP1 / RFU, PTTG1IP / Fold change vs veh, PTTG1IP / RFU, CAPN2 / Fold change vs veh, CAPN2 / RFU, MED14 / Fold change vs veh, MED14 / RFU, SNORA58 / Fold change vs veh, SNORA58 / RFU, C1orf63 / Fold change vs veh, C1orf63 / RFU, LRRFIP1 / Fold change vs veh, LRRFIP1 / RFU, NDUFAF7 / Fold change vs veh, NDUFAF7 / RFU, SLC12A2 / Fold change vs veh, SLC12A2 / RFU, IBTK / Fold change vs veh, IBTK / RFU, ESF1 / Fold change vs veh, ESF1 / Fold change vs veh, TMEM50B / RFU, TAOK1 / Fold change vs veh, TAOK1 / RFU, ACBD3 / Fold change vs veh, ACBD3 / RFU, TMA16 / Fold change vs veh, TMA16 / RFU, RWDD3 / Fold change vs veh, RWDD3 / RFU, BCAT1 / Fold change vs veh, BCAT1 / RFU, EDEM3 / Fold change vs veh, EDEM3 / RFU, TMEM33 / Fold change vs veh, TMEM33 / RFU, WDR75 / Fold change vs veh, WDR75 / RFU, AHCTF1 / Fold change vs veh, AHCTF1 / RFU, TFRC / Fold change vs veh, TFRC / RFU, ZDHHC17 / Fold change vs veh, ZDHHC17 / RFU, NOM1 / Fold change vs veh, NOM1 / RFU, ARL8B / Fold change vs veh, ARL8B / RFU, ZBTB11 / Fold change vs veh, ZBTB11 / RFU, TAMM41 / Fold change vs veh, TAMM41 / RFU, KIAA1704 /// LOC100996395 / Fold change vs veh, KIAA1704 /// LOC100996395 / RFU, ING1 / Fold change vs veh, ING1 / RFU, TRMT61B / Fold change vs veh, TRMT61B / RFU, FUBP3 / Fold change vs veh, FUBP3 / RFU, TP53 / Fold change vs veh, TP53 / RFU, TNKS2 / Fold change vs veh, TNKS2 / RFU, ZFP14 / Fold change vs veh, ZFP14 / RFU, ACTR2 / Fold change vs veh, ACTR2 / RFU, PPP3R1 / Fold change vs veh, PPP3R1 / RFU, PIK3R1 / Fold change vs veh, PIK3R1 / RFU, HNRNPA1 / Fold change vs veh, HNRNPA1 / RFU, RNF170 / Fold change vs veh, RNF170 / RFU, ZNF28 / Fold change vs veh, ZNF28 / RFU, RNGTT / Fold change vs veh, RNGTT / RFU, OGT / Fold change vs veh, OGT / RFU, BRD1 / Fold change vs veh, BRD1 / RFU, MARS / Fold change vs veh, MARS / RFU, ZNF655 / Fold change vs veh, ZNF655 / RFU, FAHD1 / Fold change vs veh, FAHD1 / RFU, BDP1 / Fold change vs veh, BDP1 / RFU, LRRCC1 / Fold change vs veh, LRRCC1 / RFU, ARID1A / Fold change vs veh, ARID1A / RFU, ZNF146 / Fold change vs veh, ZNF146 / RFU, ZNF330 / Fold change vs veh, ZNF330 / RFU, GPN3 / Fold change vs veh, GPN3 / RFU, C9orf123 / Fold change vs veh, C9orf123 / RFU, N4BP2L2 / Fold change vs veh, N4BP2L2 / RFU, ARFIP1 / Fold change vs veh, ARFIP1 / RFU, FAM179B / Fold change vs veh, FAM179B / RFU, BCL10 / Fold change vs veh, BCL10 / RFU, UHRF1BP1L / Fold change vs veh, UHRF1BP1L / RFU, BET1 / Fold change vs veh, BET1 / RFU, CNOT2 / Fold change vs veh, CNOT2 / RFU, ZNF268 / Fold change vs veh, ZNF268 / Fold change vs veh, ZNF507 / RFU, DGCR2 / Fold change vs veh, DGCR2 / RFU, WDSUB1 / Fold change vs veh, WDSUB1 / Fold change vs veh, HSP90B1 /// MIR3652 / RFU, ADSS / Fold change vs veh, ADSS / RFU, GK / Fold change vs veh, GK / RFU, ZNF148 / Fold change vs veh, ZNF148 / RFU, TAF9 / Fold change vs veh, TAF9 / RFU, SLC1A5 / Fold change vs veh, SLC1A5 / RFU, SLMO2 / Fold change vs veh, SLMO2 / RFU, ABCC4 / Fold change vs veh, ABCC4 / RFU, LOC101060439 /// RAP1B / Fold change vs veh, LOC101060439 /// RAP1B / RFU, RFX7 / Fold change vs veh, RFX7 / RFU, GTPBP10 / Fold change vs veh, GTPBP10 / RFU, CNEP1R1 / Fold change vs veh, CNEP1R1 / RFU, BIVM-ERCC5 /// ERCC5 / Fold change vs veh, BIVM-ERCC5 /// ERCC5 / RFU, ILF3 / Fold change vs veh, ILF3 / RFU 11762660_at / Fold change /veh 11762660_at / RFU VCAN (11757783_s_at) / Fold change /veh VCAN (11757783_s_at) / RFU DDX43 (11728927_at) / Fold change /veh DDX43 (11728927_at) / RFU KRT8 (11758188_x_at) / Fold change /veh KRT8 (11758188_x_at) / RFU NKD1 (11759106_at) / Fold change /veh NKD1 (11759106_at) / RFU SRD5A1 (11742802_a_at) / Fold change /veh SRD5A1 (11742802_a_at) / RFU TPSAB1 /// TPSB2 (11721975_s_at) / Fold change /veh TPSAB1 /// TPSB2 (11721975_s_at) / RFU GSTM3 (11746129_a_at) / Fold change /veh GSTM3 (11746129_a_at) / RFU IL23R (11737362_x_at) / Fold change /veh IL23R (11737362_x_at) / RFU TMEM51 (11727254_a_at) / Fold change /veh TMEM51 (11727254_a_at) / RFU PIWIL2 (11732686_x_at) / Fold change /veh PIWIL2 (11732686_x_at) / RFU ORM1 (11744905_x_at) / Fold change /veh ORM1 (11744905_x_at) / RFU CCDC152 (11743942_at) / Fold change /veh CCDC152 (11743942_at) / RFU ECM1 (11717891_a_at) / Fold change /veh ECM1 (11717891_a_at) / RFU IL23R (11748794_a_at) / Fold change /veh IL23R (11748794_a_at) / RFU TNFAIP8L3 (11732012_x_at) / Fold change /veh TNFAIP8L3 (11732012_x_at) / RFU MBOAT4 (11741988_at) / Fold change /veh MBOAT4 (11741988_at) / RFU 11764193_at / Fold change /veh 11764193_at / RFU TMEM53 (11763286_at) / Fold change /veh TMEM53 (11763286_at) / RFU MAGEB2 (11727129_at) / Fold change /veh MAGEB2 (11727129_at) / RFU TMEM200A (11744735_a_at) / Fold change /veh TMEM200A (11744735_a_at) / RFU CCDC152 (11751479_a_at) / Fold change /veh CCDC152 (11751479_a_at) / RFU FAM211A (11726209_a_at) / Fold change /veh FAM211A (11726209_a_at) / RFU RGS16 (11746705_a_at) / Fold change /veh RGS16 (11746705_a_at) / RFU VCAN (11755009_s_at) / Fold change /veh VCAN (11755009_s_at) / RFU RHOB (11743442_s_at) / Fold change /veh RHOB (11743442_s_at) / RFU RGS16 (11720943_a_at) / Fold change /veh RGS16 (11720943_a_at) / RFU RGS16 (11720944_at) / Fold change /veh RGS16 (11720944_at) / RFU, VPS4B / Fold change vs veh, VPS4B / RFU, CREB1 / Fold change vs veh, CREB1 / RFU, DNAJC13 / Fold change vs veh, DNAJC13 / RFU, GNAQ / Fold change vs veh, GNAQ / RFU, CDK5R1 / Fold change vs veh, CDK5R1 / RFU, ZRANB3 / Fold change vs veh, ZRANB3 / RFU, CUL4A / Fold change vs veh, CUL4A / RFU, CCNY / Fold change vs veh, CCNY / RFU, UFL1 / Fold change vs veh, UFL1 / RFU, COG3 / Fold change vs veh, COG3 / RFU, DIAPH2 / Fold change vs veh, DIAPH2 / RFU, SKA2 / Fold change vs veh, SKA2 / RFU, AFF3 / Fold change vs veh, AFF3 / RFU, LMF1 / Fold change vs veh, LMF1 / RFU, IPO11 / Fold change vs veh, IPO11 / RFU, DFFB / Fold change vs veh, DFFB / RFU, FOXP1 / Fold change vs veh, FOXP1 / RFU, CARD8 / Fold change vs veh, CARD8 / RFU, STRN3 / Fold change vs veh, STRN3 / RFU, ADK / Fold change vs veh, ADK / RFU, RASSF2 / Fold change vs veh, RASSF2 / RFU, WIPF1 / Fold change vs veh, WIPF1 / RFU, LARP1B / Fold change vs veh, LARP1B / RFU, RASA1 / Fold change vs veh, RASA1 / RFU, RB1 / Fold change vs veh, RB1 / RFU, PPFIA1 / Fold change vs veh, PPFIA1 / RFU, MAT2A / Fold change vs veh, MAT2A / RFU, CCT5 / Fold change vs veh, CCT5 / RFU, WDR92 / Fold change vs veh, WDR92 / RFU, CUX1 / Fold change vs veh, CUX1 / RFU, TTC7A / Fold change vs veh, TTC7A / RFU, TMEM135 / Fold change vs veh, TMEM135 / RFU, DEPTOR / Fold change vs veh, DEPTOR / RFU, CPM / Fold change vs veh, CPM / RFU, DNAJB6 / Fold change vs veh, DNAJB6 / RFU, CACNA2D3 / Fold change vs veh, CACNA2D3 / RFU, DTX4 / Fold change vs veh, DTX4 / RFU, TFCP2 / Fold change vs veh, TFCP2 / RFU, GMCL1 /// GMCL1P1 / Fold change vs veh, GMCL1 /// GMCL1P1 / RFU, AEBP2 / Fold change vs veh, AEBP2 / RFU, SNHG1 /// SNORD22 /// SNORD25 /// SNORD26 /// SNORD27 /// SNORD28 /// SNORD29 /// SNORD31 / Fold change vs veh, SNHG1 /// SNORD22 /// SNORD25 /// SNORD26 /// SNORD27 /// SNORD28 /// SNORD29 /// SNORD31 / Fold change (Aza/veh), C12orf56 (ProbeSet 11735607_a_at) / Fold change (ACY-1035/veh), C12orf56 (ProbeSet 11735607_a_at) / Fold change (Aza/veh), FGFR1OP (ProbeSet 11751329_s_at) / Fold change (ACY-1035/veh), FGFR1OP (ProbeSet 11751329_s_at) / Fold change (Aza/veh), VPS36 (ProbeSet 11739960_a_at) / Fold change (ACY-1035/veh), VPS36 (ProbeSet 11739960_a_at) / RFU SYPL1 (11715823_x_at) / Fold change /veh SYPL1 (11715823_x_at) / RFU IGFBP7 (11715501_s_at) / Fold change /veh IGFBP7 (11715501_s_at) / RFU REEP3 (11722064_at) / Fold change /veh REEP3 (11722064_at) / RFU IGLL1 (11728026_x_at) / Fold change /veh IGLL1 (11728026_x_at): dose or concentration left out as unconfirmed
Settings: ProbeSet 11732154_at; LIST B

SMILES: Nc1ccc(-c2cccs2)cc1NC(=O)c1ccc2c(c1)cc(C1CC1)n2CCN1CCOCC1 [ACY-1035]
- Fold change vs veh, OGT: 1.05
